{"source": "patent US11607422B2", "about": "“Uttroside B and derivatives thereof as therapeutics for hepatocellular carcinoma” (Rajiv Gandhi Centre for Biotechnology, an Autonomous …, priority 2016, dated 2023)", "key": {"MDA-MB-231": {"system": "MDA-MB-231", "test": "MTT cell viability assay in MDA-MB-231 cells", "type": "cell-based", "conditions": "72 h", "procedure": "(§1) FIG. 2A is a graph comparison of IC50 of Uttroside B in a panel of cancer cells of different origin. The cancer cell lines HeLa, A375, HepG2, MDA-MB-231, HL 60, A549 and HCT116 were treated with Uttroside B as indicated, incubated for 72 h and the cell viability was assessed by MTT assay. FIG. 2B is a graph showing dose dependent effect of Uttroside B in the liver cancer cell lines and in normal immortalized hepatocytes. The liver cancer cell lines HepG2, Hep3B, SKHEP-1, Huh-7 and normal hepatocytes (Chang liver), were treated with Uttroside B incubated for 72 h and the cell viability was assessed by MTT assay. FIG. 2C is a graph comparison of IC50 of Uttroside B with sorafenib. HepG2 cells were treated with Uttroside B as indicated, incubated for 72 h, and the cell viability was assessed by MTT assay. […] The clones developed were counted and plotted as a graph. Colony containing more than four cells was counted as one clone. […]\n(§2) MTT [3-(4,5-dimethylthiazole-2-yl)-2,5-diphenyltetrazolium bromide] assay is a standard colorimetric assay, suitable for analyzing proliferation, viability, and cytotoxicity. […] After overnight incubation, cells were treated with different concentrations of organic extracts (25-250 μg/ml) of S. nigrum and the isolated compound Uttroside B (250-1250 nM) for 72 h and cytotoxicity was measured. […]"}, "[1]": {"system": "normal immortalized hepatocytes (Chang Liver)", "test": "MTT assay in normal immortalized hepatocytes", "type": "cell-based", "conditions": "at 1250 nM, 72 h", "procedure": "as §1, §2"}, "HepG2 cells": {"system": "HepG2 cells", "test": "Cell cycle analysis by flow cytometry (propidium iodide)", "type": "cell-based, human", "conditions": "HepG2, 48 h, all concentrations studied", "procedure": "FIGS. 3A-3F show Uttroside B induces caspase-dependent apoptosis leading to PARP cleavage in HepG2 cells while being independent of cell cycle. FIGS. 3A-3E are images of Western blots showing caspase activation in HepG2 cells. Whole-cell extracts were prepared after treating HepG2 cells with indicated concentrations of Uttroside B for 48 h, the whole cell lysate was resolved on a 15% gel and subjected to western blotting using antibodies against the caspases 8, 9 & 7 detected by ECL. HepG2 cells were treated with Uttroside B for 48 h at different concentrations and the whole cell lysate was resolved on a 10% gel, immunoblotted against anti-PARP and detected by ECL. […] HepG2 cells were treated with Uttroside B for 48 h, stained with propidium iodide and the cell cycle analysis was done using fluorescence activated cell sorter. Curcumin 25 μM (24 h) is used as positive control.\nFlow cytometry: Cell cycle analysis helps in distinguishing the distribution of a population of cells to the different stages of the cycle. Cell cycle analysis using flow cytometry was performed to investigate the cell cycle arrest induced by Uttroside B. Cell cycle analysis is performed by quantitative measurement of nuclear DNA content in a cell by staining DNA with propidium iodide. […]"}, "Swiss albino mice": {"system": "Swiss albino mice", "test": "Acute toxicity study", "type": "in vivo", "procedure": "Toxicological evaluation:a. Animals: Six to eight-week-old female Swiss albino mice (18-22 g) were obtained from the Animal Research Facility of Rajiv Gandhi Centre for\nBiotechnology and the study was performed under protocols approved by Institutional Animal Ethical Committee of Rajiv Gandhi Centre for Biotechnology (IAEC No: 151 (a)/RUBY/2012) b. Acute toxicity study: Swiss albino mice were randomly divided into 3 groups of 6 animals each and were allowed to acclimatize for a week. Group I was taken as the control, which received only vehicle, while Group II and III received a single dose of Uttroside B dissolved in PBS (10 mg/kg and 50 mg/Kg body weight respectively). The mice were observed continuously for 1 h, for any gross behavioral changes and death, and then intermittently for the next 6 h and 24 h. The animals were observed frequently for the next 7 days from the day of treatment after which, the animals were euthanized in a CO2 chamber. The blood serum was collected for analyzing biochemical parameters of liver function, the abnormal values of which are indicative of toxicity. The liver was fixed in 10% buffered formalin and the thin cryostat sections (LEICA CM 1850UV Cryostat) were stained with haematoxylin and eosin for histopathological evaluation.^17"}, "HCT-116": {"system": "HCT-116", "conditions": "literature ref 13; read-out: IC50, cytotoxicity against HCT-116 (colon cancer cells); cited from earlier work"}, "[2]": {"conditions": "10 mg/kg and 50 mg/kg single dose"}}, "note": "pIC50: −log10 of the molar value.", "data": [{"smiles": "C[C@H](CC[C@@]1(O)O[C@H]2C[C@H]3[C@@H]4CC[C@H]5C[C@@H](O[C@@H]6O[C@H](CO)[C@H](O[C@@H]7O[C@H](CO)[C@@H](O)[C@H](O[C@@H]8OC[C@@H](O)[C@H](O)[C@H]8O)[C@H]7O[C@@H]7O[C@H](CO)[C@@H](O)[C@H](O)[C@H]7O)[C@H](O)[C@H]6O)CC[C@]5(C)[C@H]4CC[C@]3(C)[C@H]2[C@@H]1C)CO[C@@H]1O[C@H](CO)[C@@H](O)[C@H](O)[C@H]1O", "note": "[Uttroside B]", "values": [{"measurement": "pIC50", "setting": "MDA-MB-231", "result": 5.80}, {"measurement": "viable normal immortalized hepatocytes", "setting": "[1]", "result": 70, "unit": "%"}, {"measurement": "effect on cell cycle", "setting": "HepG2 cells", "result": "did not show any significant effect on cell cycle"}, {"measurement": "histopathological analysis of liver tissue, acute", "setting": "Swiss albino mice; 10 mg/kg and 50 mg/kg", "result": "did not manifest any morphological change characteristic of toxicity"}, {"measurement": "behavior", "setting": "Swiss albino mice; [2]", "result": "did not exhibit any abnormal behavior"}, {"measurement": "serum levels of AST, ALT and ALP", "setting": "Swiss albino mice; [2]", "result": "did not show any deviation in the serum levels"}, {"measurement": "liver tissue changes at five times the treatment dose", "setting": "Swiss albino mice; 50 mg/kg, acute, reversible changes", "result": "micro vesicular fatty changes"}, {"measurement": "gross adverse response (body weight, fur, behavior, food intake)", "setting": "Swiss albino mice; up to 5 times dose", "result": "failed to exhibit any signs of cumulative adverse response"}, {"measurement": "pIC50", "setting": "HCT-116", "result": 5.63}]}]}
